#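 Each compound was tested at five concentrations against cells in 96-well plates for 48 hours. Abbreviation: GI50, concentration required for 50% inhibition of growth.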 Active and inactive are the calls of the source. Cut-off read from the data, not from the text of the source: active = GI50 up to about 1.1 µM and inactive = higher.
# How the values were obtained:
# Assay in all cases: NCI-60 cell line screen, 48 h
# TK-10 = system: TK-10
# SW-620 = system: SW-620
# UACC-62 = system: UACC-62
# SK-OV-3 = system: SK-OV-3
# U-251 = system: U-251
# HT-29 = system: HT-29
# CAKI-1 = system: CAKI-1
# SF-539 = system: SF-539
# SF-268 = system: SF-268
# SNB-19 = system: SNB-19
# NCI-H460 = system: NCI-H460
# MCF7 = system: MCF7
# HL-60 = system: HL-60
# MDA-MB-435 = system: MDA-MB-435
# SK-MEL-28 = system: SK-MEL-28
# CCRF-CEM = system: CCRF-CEM
# KM12 = system: KM12
# RXF 393 = system: RXF 393
# UO-31 = system: UO-31
# HCC 2998 = system: HCC 2998
# HOP-92 = system: HOP-92
# IGROV-1 = system: IGROV-1
# SN12C = system: SN12C
# MDA-N = system: MDA-N
# 786-0 = system: 786-0
# NCI-H23 = system: NCI-H23
# HCT-15 = system: HCT-15
# EKVX = system: EKVX
# MDA-MB-231 = system: MDA-MB-231
# DU-145 = system: DU-145
# Hs-578T = system: Hs-578T
# BT-549 = system: BT-549
# OVCAR-5 = system: OVCAR-5
# SK-MEL-5 = system: SK-MEL-5
# NCI/ADR-RES = system: NCI/ADR-RES
# SF-295 = system: SF-295
# OVCAR-8 = system: OVCAR-8
# SNB-75 = system: SNB-75
# ACHN = system: ACHN
# NCI-H522 = system: NCI-H522
# A549 = system: A549
# HCT-116 = system: HCT-116
# M14 = system: M14
# NCI-H226 = system: NCI-H226
# UACC-257 = system: UACC-257
# LOX IMVI = system: LOX IMVI
# COLO 205 = system: COLO 205
# MOLT-4 = system: MOLT-4
# OVCAR-3 = system: OVCAR-3
# PC-3 = system: PC-3
# HOP-62 = system: HOP-62
# OVCAR-4 = system: OVCAR-4
# SK-MEL-2 = system: SK-MEL-2
structure (smiles),measurement,setting,value
CCCCOC(=O)C(=O)C(CC(C(=O)Cc1ccccc1)c1ccccc1)C(=O)C=C(C)C (stereo not drawn),GI50,TK-10,> 100 µM (inactive)
same,GI50,SW-620,> 100 µM (inactive)
same,GI50,UACC-62,> 100 µM (inactive)
same,GI50,SK-OV-3,> 100 µM (inactive)
same,GI50,U-251,> 100 µM (inactive)
same,GI50,HT-29,> 100 µM (inactive)
same,GI50,CAKI-1,> 100 µM (inactive)
same,GI50,SF-539,> 100 µM (inactive)
same,GI50,SF-268,> 100 µM (inactive)
same,GI50,SNB-19,> 100 µM (inactive)
same,GI50,NCI-H460,> 100 µM (inactive)
same,GI50,MCF7,> 100 µM (inactive)
same,GI50,HL-60,50.1 µM (inactive)
same,GI50,MDA-MB-435,> 100 µM (inactive)
same,GI50,SK-MEL-28,> 100 µM (inactive)
same,GI50,CCRF-CEM,76.6 µM (inactive)
same,GI50,KM12,> 100 µM (inactive)
same,GI50,RXF 393,> 100 µM (inactive)
same,GI50,UO-31,> 100 µM (inactive)
same,GI50,HCC 2998,> 100 µM (inactive)
same,GI50,HOP-92,> 100 µM (inactive)
same,GI50,IGROV-1,> 100 µM (inactive)
same,GI50,SN12C,> 100 µM (inactive)
same,GI50,MDA-N,> 100 µM (inactive)
same,GI50,786-0,> 100 µM (inactive)
same,GI50,NCI-H23,> 100 µM (inactive)
same,GI50,HCT-15,> 100 µM
same,GI50,EKVX,> 100 µM (inactive)
same,GI50,MDA-MB-231,> 100 µM (inactive)
same,GI50,DU-145,> 100 µM (inactive)
same,GI50,Hs-578T,> 100 µM (inactive)
same,GI50,BT-549,> 100 µM (inactive)
same,GI50,OVCAR-5,> 100 µM (inactive)
same,GI50,SK-MEL-5,> 100 µM (inactive)
same,GI50,NCI/ADR-RES,> 100 µM (inactive)
same,GI50,SF-295,> 100 µM (inactive)
same,GI50,OVCAR-8,> 100 µM (inactive)
same,GI50,SNB-75,> 100 µM (inactive)
same,GI50,ACHN,> 100 µM (inactive)
same,GI50,NCI-H522,> 100 µM (inactive)
same,GI50,A549,> 100 µM (inactive)
same,GI50,HCT-116,> 100 µM (inactive)
same,GI50,M14,> 100 µM (inactive)
same,GI50,NCI-H226,> 100 µM (inactive)
same,GI50,UACC-257,> 100 µM (inactive)
same,GI50,LOX IMVI,> 100 µM (inactive)
same,GI50,COLO 205,> 100 µM (inactive)
same,GI50,MOLT-4,83.9 µM (inactive)
same,GI50,OVCAR-3,> 100 µM (inactive)
same,GI50,PC-3,> 100 µM (inactive)
same,GI50,HOP-62,> 100 µM (inactive)
same,GI50,OVCAR-4,> 100 µM (inactive)
same,GI50,SK-MEL-2,> 100 µM (inactive)
